What was measured:
[1] = tested on: wheat leaf blight-causing microbe; test: Antimicrobial activity to wheat leaf blight-causing microbe (PDA plate, hyphal expansion inhibition); format: cell-based, Septoria tritici; conditions: 336 h, PDA medium, 25° C., 14 days; for inhibition at 50 µg/mL: Concentration 50 mg/L, read-out: Growth inhibition; for inhibition at 1.25 µg/mL: test sample concentration 1.25 mg/L, read-out: hyphal expansion-inhibiting rate
Method: In this Test Example, antimicrobial activity of the inventive compounds to wheat leaf blight-causing microbe was determined and compared with that of the comparative compound (1).

[2] = tested on: wheat leaf rust-causing microbe; test: Wheat leaf rust-controlling activity (foliar spray, pot test); format: in vivo, Puccinia recondita
[3] = tested on: wheat powdery mildew-causing microbes; test: Controlling activity to wheat powdery mildew of seed treatment (pot test); format: in vivo, Erysiphe graminis f. sp tritici; conditions: 2 mg in DMSO applied to wheat seeds 1 g, 14 to 28 days after seeding
Method: Controlling activity to wheat powdery mildew was examined in a pot test. Each of the inventive compounds […]-53, and a comparative compound (1) was weighed in an amount of 2 mg and dissolved in DMSO (18 μl). The solution thus prepared was applied to wheat seeds 1 g in a vial, 8 wheat seeds were seeded in a 80 cm^2 pot. The wheat was grown, as water was supplied from blow, in a greenhouse where wheat powdery mildew-causing microbes are present abundantly. The incidence rate was determined and the controlling rate and additionally the controlling index calculated 14 to 28 days after seeding. The controlling rate was calculated and the wheat powdery mildew controlling index determined according to the following equation: Controlling rate=(1-Incidence rate in treated region/Incidence rate in non-treated region)×100(%) [table]

[4] = tested on: wheat leaf rust-causing microbe; test: Control activity of wheat leaf rust by seed treatment (pot test); format: in vivo, Puccinia recondita; conditions: 2 mg in DMSO applied to wheat seeds 10 g, inoculated 21 days after seeding
Method: Controlling activity to wheat leaf rust was examined in a pot test. […] The solution prepared was applied to wheat seeds 10 g in a vial and 8 wheat seeds were seeded in a 80 cm^2 pot. The seeds were grown in greenhouse, as water was supplied from below; a wheat leaf rust-causing microbe was inoculated 21 days after seeding; and the pot was stored in a constant-humidity box for 2 days. The plant was grown in green house, as water was supplied from below, and the incidence rate was determined and the controlling rate calculated […]. The controlling rate was calculated according to the equation below and used as the wheat leaf rust-controlling rate. Controlling rate=(1−Incidence rate in treated region/Incidence rate in non-treated region)×100(%)

wheat [5] = test: Damage (necrosis) to wheat by seed treatment (pot test); format: in vivo; conditions: 2 mg in DMSO applied to wheat seeds 1 g, 12 days after seeding
Method: Damage (necrosis) to wheat was examined in a pot test. An inventive compound 1-2 and a comparative compound (1) were dissolved in DMSO (18 μl) respectively in an amount of 2 mg. The solution thus prepared was applied to wheat seeds 1 g in a vial and 8 seeds were seeded in a 80 cm^2 pot. The plant was grown in green house, as water was supplied from below, and the damage was determined 12 days after seeding.

wheat [6] = test: Damage to wheat (growth inhibition) by seed treatment (pot test); conditions: 2 mg in DMSO applied to wheat seeds 1 g, 14 to 28 days after seeding, larger index = smaller damage
[7] = tested on: Cucumber Fusarium wilt-causing microbe (Fusarium oxysporum); test: Antimicrobial activity to various pathogenic microbes: F.c; conditions: 50 mg/L
Method: (§1) An inventive compound was dissolved in dimethylsulfoxide 2 ml. The solution 0.6 ml was added to a PDA medium (potato-dextrose-agar medium) 60 ml at around 60° C.
(§2) A flat plate containing a test microbe (wheat leaf blight-causing microbe) cultured separately was punched into pieces with a cork borer having a diameter of 4 mm and the circular plate obtained was placed on the flat plate media containing the chemical described above. The plates were cultured at 25° C. for 14 days after inoculation and the diameter of the microbial colony was determined. Hyphal expansion-inhibiting rate was calculated according to the following equation: R=100(dc−dt)/dc (wherein, R: hyphal expansion-inhibiting rate (%), dc: diameter of microbial colony on non-treated flat plate, dt: diameter of microbial colony on chemically-treated flat plate).
(§3) The results thus obtained were evaluated in 5 stages according to the criteria below:

[8] = tested on: Barley loose smut-causing microbe (Ustilago nuda); test: Antimicrobial activity to various pathogenic microbes: U.n; conditions: 50 mg/L
Method: as §1
(§4) The plates were cultured at 25° C. for 14 days after inoculation and the diameter of the microbial colony was determined. Hyphal expansion-inhibiting rate was calculated according to the following equation: R=100(dc−dt)/dc (wherein, R: hyphal expansion-inhibiting rate (%), dc: diameter of microbial colony on non-treated flat plate, dt: diameter of microbial colony on chemically-treated flat plate).
as §3
Barley loose smut-causing microbe (Ustilago nuda) U.n

[9] = tested on: Wheat glume blotch-causing microbe (Phaeosphaeria nodorum); test: Antimicrobial activity to various pathogenic microbes: P.n; conditions: 50 mg/L
Method: as §1, §2
(§5) In this Test Example, the antimicrobial activity of the inventive compounds to various plant disease-causing fungi and industrial material-eroding microorganisms was studied by the method described in Example 1.
as §3
Wheat glume blotch-causing microbe (Phaeosphaeria nodorum) P.n

[10] = tested on: Rice bakanae disease-causing microbe (Gibberella fujikuroi); test: Antimicrobial activity to various pathogenic microbes: G.f; conditions: 50 mg/L
Method: as §1, §2, §3

[11] = tested on: Sclerotinia rot-causing microbe (Sclerotinia sclerotiorum); test: Antimicrobial activity to various pathogenic microbes: S.s; conditions: 50 mg/L
Method: as §1, §2, §3
Sclerotinia rot-causing microbe (Sclerotinia sclerotiorum) S.s

[12] = tested on: Wheat fusarium blight-causing microbe (Fusarium graminearum); format: cell-based; conditions: 50 mg/L
[13] = tested on: Barley scald-causing microbe (Rhynchosporium secalis); test: Antimicrobial activity to various pathogenic microbes: R.sec; conditions: 50 mg/L
Method: as §1, §2, §5, §3
Barley scald-causing microbe (Rhynchosporium secalis) R.sec

[14] = tested on: Gray mold-causing microbe (Botrytis cinerea); test: Antimicrobial activity to various pathogenic microbes: B.c; conditions: 50 mg/L
Method: as §1, §2, §5, §3
Gray mold-causing microbe (Botrytis cinerea) B.c

[15] = tested on: Rice blast-causing microbe (Pyricularia oryzae); format: cell-based; conditions: 50 mg/L
[16] = tested on: Wheat eye spot-causing microbe (Pseudocercoporella herpotrichoides); test: Antimicrobial activity to various pathogenic microbes: P.h; conditions: 50 mg/L
Method: as §1, §4, §3
Wheat eye spot-causing microbe (Pseudocercoporella herpotrichoides) P.h

[17] = tested on: Apple alternaria blotch-causing microbe (Alternaria alternata); test: Antimicrobial activity to various pathogenic microbes: A.m; conditions: 50 mg/L
Method: as §1, §2, §5, §3
Apple alternaria blotch-causing microbe (Alternaria alternata) A.m

[18] = Concentration 25 g/ha, wettable powder sprayed on wheat (Norin No. 61), 9 to 14 days after inoculation

SMILES	inhibition at 50 µg/mL [1]	inhibition at 1.25 µg/mL [1]	Controlling index [2, 18]	Controlling index ([2]; test sample concentration 1 g/ha, wettable powder sprayed on wheat)	Controlling index Wheat powdery mildew [3]	controlling rate (wheat leaf rust) [4]	Damage (necrosis) (wheat [5])	Damage index Growth inhibition (wheat [6])	Growth inhibition (hyphal expansion-inhibiting rate grade) F.c [7]	Growth inhibition (hyphal expansion-inhibiting rate grade) U.n [8]	Growth inhibition (hyphal expansion-inhibiting rate grade) P.n [9]	Growth inhibition (hyphal expansion-inhibiting rate grade) G.f [10]	Growth inhibition (hyphal expansion-inhibiting rate grade) S.s [11]	Growth inhibition (hyphal expansion-inhibiting rate grade) F.g [12]	Growth inhibition (hyphal expansion-inhibiting rate grade) R.sec [13]	Growth inhibition (hyphal expansion-inhibiting rate grade) B.c [14]	Growth inhibition (hyphal expansion-inhibiting rate grade) P.o [15]	Growth inhibition (hyphal expansion-inhibiting rate grade) P.h [16]	Growth inhibition (hyphal expansion-inhibiting rate grade) A.m [17]
CC1(C)CC[C@H](Cc2ccc(Cl)cc2)[C@@]1(O)Cn1cncn1 (racemic) [Compound (1), (1RS,5SR)-5-(4-chlorobenzyl)-2-dimethyl-1-(1H-1,2,4-triazol-1-ylmethyl)cyclopentanol, reference compound]	> 80%	60 to 80%	5 (81 to 100)	4 (61 to 80)	5 (Controlling rate: 40 or more)	88%	necrotic symptom	0 (80% or more)											
COC(=O)[C@]1(C)CC[C@@H](Cc2ccc(Cl)cc2)[C@]1(O)Cn1cncn1 (racemic) [Compound I-2, methyl-(1RS,2RS,3SR)-3-(4-chlorobenzyl)-2-hydroxy-1-methyl-2-(1H-1,2,4-triazol-1-ylmethyl)cyclopentanecarboxylate]	> 80%	≥ 80%	5 (81 to 100)		5 (Controlling rate: 40 or more)	95%	no necrotic symptom	1 (60% or more and less than 80%)	5 (hyphal expansion-inhibiting rate: 80% or more)	5 (hyphal expansion-inhibiting rate: 80% or more)	5 (hyphal expansion-inhibiting rate: 80% or more)	5 (hyphal expansion-inhibiting rate: 80% or more)	5 (hyphal expansion-inhibiting rate: 80% or more)	5 (hyphal expansion-inhibiting rate: 80% or more)	5 (hyphal expansion-inhibiting rate: 80% or more)	5 (hyphal expansion-inhibiting rate: 80% or more)	5 (hyphal expansion-inhibiting rate: 80% or more)	5 (hyphal expansion-inhibiting rate: 80% or more)	5 (hyphal expansion-inhibiting rate: 80% or more)
CCCOC(=O)[C@]1(C)CC[C@@H](Cc2ccc(Cl)cc2)[C@]1(O)Cn1cncn1 (racemic) [Compound I-6, n-propyl-(1RS,2RS,3SR)-3-(4-chlorobenzyl)-2-hydroxy-1-methyl-2-(1H-1,2,4-triazol-1-ylmethyl)cyclopentanecarboxylate]	> 80%	≥ 80%	5 (81 to 100)		5 (Controlling rate: 40 or more)			3 (20% or more and less than 40%)	5 (hyphal expansion-inhibiting rate: 80% or more)	5 (hyphal expansion-inhibiting rate: 80% or more)	5 (hyphal expansion-inhibiting rate: 80% or more)	5 (hyphal expansion-inhibiting rate: 80% or more)	5 (hyphal expansion-inhibiting rate: 80% or more)	5 (hyphal expansion-inhibiting rate: 80% or more)	5 (hyphal expansion-inhibiting rate: 80% or more)	5 (hyphal expansion-inhibiting rate: 80% or more)	5 (hyphal expansion-inhibiting rate: 80% or more)	5 (hyphal expansion-inhibiting rate: 80% or more)	5 (hyphal expansion-inhibiting rate: 80% or more)
CCOC(=O)[C@]1(C)CC[C@@H](Cc2ccc(Cl)cc2)[C@]1(O)Cn1cncn1 (racemic) [Compound I-3, ethyl-(1RS,2RS,3SR)-3-(4-chlorobenzyl)-2-hydroxy-1-methyl-2-(1H-1,2,4-triazol-1-ylmethyl)cyclopentanecarboxylate]	> 80%	≥ 80%	5 (81 to 100)		5 (Controlling rate: 40 or more)			1 (60% or more and less than 80%)	5 (hyphal expansion-inhibiting rate: 80% or more)	5 (hyphal expansion-inhibiting rate: 80% or more)	5 (hyphal expansion-inhibiting rate: 80% or more)	5 (hyphal expansion-inhibiting rate: 80% or more)	5 (hyphal expansion-inhibiting rate: 80% or more)	5 (hyphal expansion-inhibiting rate: 80% or more)	5 (hyphal expansion-inhibiting rate: 80% or more)	5 (hyphal expansion-inhibiting rate: 80% or more)	5 (hyphal expansion-inhibiting rate: 80% or more)	5 (hyphal expansion-inhibiting rate: 80% or more)	5 (hyphal expansion-inhibiting rate: 80% or more)
CC(C)OC(=O)[C@]1(C)CC[C@H](Cc2ccc(Cl)cc2)[C@@]1(O)Cn1cncn1 (racemic) [Compound I-137, isopropyl-(1RS,2SR,3RS)-3-(4-chlorobenzyl)-2-hydroxy-1-methyl-2-(1H-1,2,4-triazol-1-ylmethyl)cyclopentanecarboxylate]	> 80%		5 (81 to 100)		5 (Controlling rate: 40 or more)			5	5 (hyphal expansion-inhibiting rate: 80% or more)	5 (hyphal expansion-inhibiting rate: 80% or more)	5 (hyphal expansion-inhibiting rate: 80% or more)	5 (hyphal expansion-inhibiting rate: 80% or more)	5 (hyphal expansion-inhibiting rate: 80% or more)	5 (hyphal expansion-inhibiting rate: 80% or more)	5 (hyphal expansion-inhibiting rate: 80% or more)	5 (hyphal expansion-inhibiting rate: 80% or more)	5 (hyphal expansion-inhibiting rate: 80% or more)	5 (hyphal expansion-inhibiting rate: 80% or more)	5 (hyphal expansion-inhibiting rate: 80% or more)

From patent US9440933B2, “Azole derivative, method for producing same, intermediate compound, and agricultural or horticultural chemical agent and industrial material protecting agent” (KUREHA CORPORATION, priority 2011, dated 2016)
